From patent US20100076072A1, “COMPOSITIONS AND METHODS OF VITAMIN E ADMINISTRATION” (NORTHWESTERN UNIVERSITY, priority 2008, published 2010)

Assays:
lung = settings: in vivo; cited from earlier work
[1] = tested on: OVA-challenged mice (experimental asthma); experiment: OVA experimental asthma: lung tissue eosinophils (anti-major basic protein immunolabeling); assay type: in vivo, mouse; settings: daily s.c. 2 μg tocopherol days 13-20, day 21
[2] = Tocopherol levels in lung tissue and plasma (HPLC, electrochemical detector); assay type: in vivo, mouse
Protocol: Body weight and tocopherol levels in these mice were examined. […] Lungs were perfused to remove the blood, homogenized in ethanol and extracted with hexane. Tocopherol concentrations were determined by HPLC with an electrochemical detector.

[3] = tested on: VCAM-1-dependent lymphocyte migration across mHEVa endothelial cells; experiment: Transendothelial migration assay with physiological laminar flow (parallel plate flow chamber); assay type: cell-based, mouse; settings: endothelial cells pretreated overnight, washed; 15 minutes, 2 dynes/cm^2
Protocol: In vitro cell association and migration assays with laminar flow. The parallel plate flow chamber was used to examine migration under conditions of laminar flow. Endothelial cells were grown to confluence on slides and then the slide was placed in a parallel plate flow chamber. In vivo, in the absence of inflammation, the rapid fluid dynamics of the blood result in blood cells located midstream of the vascular flow. However, during inflammation, there is a change of fluid dynamics. […]
Therefore, spleen cells (3×10^6) were added to the flow chamber (35 cm^2) at 2 dynes/cm^2. […] To initiate spleen cell contact with the endothelial cells in vitro, the spleen cells were allowed to settle in the chamber as monitored by microscopy and then 2 dynes/cm^2 was applied for the 15 minute laminar flow assay. […] To quantify migrated spleen cells at 15 minutes, phase contrast microscopy was used to count migrated cells that are phase dark. Under laminar flow, spleen cell migration was detected at 15 minutes. The number of spleen cells that were associated but not migrated (phase light cells) at 15 minutes is low since in 15 minutes, the majority of non-migrating cells roll off the monolayer of endothelial cells as determined by microscopy. […]

[4] = tested on: VCAM-1-dependent spleen cell migration across mHEVa endothelial cells; experiment: In vitro Transwell migration assay; assay type: cell-based, mouse
Protocol: In vitro Transwell migration assay. mHEVa cells were grown to confluence on Transwells with 12 μm pores (Costar Cambridge, Mass.). The mHEVc cell monolayers block nonspecific accumulation of red blood cells in the lower transwell chamber and block FITC-albumin diffusion. Spleen cell migration is stimulated by mHEV cell secretion of the chemokine MCP-1. The number of lymphocytes that migrate is linear from 0-24 hrs followed by a plateau. Spleen cells that migrate are greater than 95% lymphocytes and the percentage of cells that migrate is consistent with other in vitro models with endothelial cell lines or cytokine-activated microvascular endothelial cells.
In this transendothelial migration assay used, the migrated spleen cells are >95% lymphocytes and the B cells and T cells migrate in response to MCP-1. […]

[5] = tested on: adhesion molecule expression; settings: atherosclerosis models; cited from earlier work

Cc1c(C)c2c(c(C)c1O)CC[C@@](C)(CCC[C@H](C)CCC[C@H](C)CCCC(C)C)O2 [α-tocopherol, d-α-tocopherol, reference compound]
High oxidation by ozone and smoke in the lung (lung): reduces | Eosinophils in the lung tissue [1]: reduced | Increase in α-tocopherol in lungs of α-tocopherol-treated mice ([2]; day 21): five-fold increase | Lung tissue level of the other tocopherol (α vs γ) ([2]; mice, day 21): did not alter | Lung tissue level of the administered tocopherol ([2]; mice, day 21, daily s.c. 2 μg tocopherol days 13-20): elevated levels | VCAM-1-dependent lymphocyte migration under laminar flow [3]: inhibited | Migration after pretreatment of leukocytes with tocopherol and washing ([4]; leukocytes pretreated, washed): no effect on migration | Lymphocyte migration in transwell migration assay ([4]; tocopherol left in culture, 24 hours after addition of spleen cells, 80 μM α / 5 μM γ): inhibited lymphocyte migration | Adhesion molecule expression [5]: inhibit
